Results from article PMC8241142 (Drug Delivery, 2017).

What was measured:
[1] = tested on: mouse ear swelling caused by xylene; experiment: Mouse ear swelling test (MEST); format: in vivo, Kunming mice; conditions: intragastric, 0.6 mg NMS, 50 min
Description: The mouse ear swelling test was developed to further evaluate the swelling inhibition potential of NMS/CMS. In detail, 16 male Kunming mice weighing 18–22 g were randomly divided into four groups (n = 4): NS group (negative control group), NMS group (positive control group), NMS/CMS group ([…]) and NMS/MCM41 group ([…]). Samples containing 0.6 mg NMS were suspended in normal saline and imposed to mice in all groups by intragastric administration. Mice in NS group were exposed to normal saline only. At 30 min after administration, 0.1 ml xylene was applied on each side of the left ear of mice, and the right ear regarded as a reference was left untreated. After 50 min, mice were executed, both ears were removed, and tissues with diameter of 0.6 cm were cut off by hole punch. The weight of the tissues cut from left and right ears was measured by electronic scale. The repression rate and the degree of ear swelling were, respectively, expressed as: (3) Repression rate (%)=(wL-wR)negative control-(wL-wR)test/(wL-wR)negative control-(wL-wR)positive control×100 (4) Swelling rate (%)=wL-wR/wR×100 where w L is the weight of tissue cut from the left ear and w R is the weight of tissue cut from the right ear of the same mice.

[2] = In vitro release of NMS samples (USP II paddle method, PBS pH 7.8); format: physicochemical; conditions: PBS pH 7.8, 37 °C
Description: (§1) Dissolution studies of samples were carried out according to a USP II paddle method at 37 °C with a stirrer rotation speed of 50 rpm in a dissolution apparatus (ZRD6-B, Shanghai Huanghai Medicament Test Instrument Factory, Shanghai, China). […] At predetermined time intervals, 5 ml samples were taken out and replaced by fresh medium immediately. Then, samples were passed through a 0.22 μm membrane filter and were transferred to UV/Vis analysis at the wavelength of 240 nm.
Samples containing 5 mg NMS were put into 250 ml phosphate buffer solutions (PBS, pH 7.8) at 37 °C.

[3] = In vitro release of DZP samples (USP II paddle method); format: physicochemical; conditions: deionized water, 37 °C, 50 rpm
Description: as §1

Row | Structure (SMILES) | ear swelling rate [1] [%] | accumulative release percentage within 24 h [2] [%] | cumulative release percentage within 24 h [3] [%]
1 | CS(=O)(=O)Nc1ccc([N+](=O)[O-])cc1Oc1ccccc1 [NMS, Nimesulide] | 32.4 | 93.1 | 
2 | CN1C(=O)CN=C(c2ccccc2)c2cc(Cl)ccc21 [DZP, Diazepam] |  |  | 66.75
